# Measured values from patent US12319703B2, “Macrocyclic fused pyrazoles as Mcl-1 inhibitors” (ASCENTAGE PHARMA (SUZHOU) CO., LTD., priority 2019, dated 2025).
# Experiments:
# Kinetic solubility assay = type: physicochemical; details: PBS buffer pH 6.5, aqueous buffer, thermodynamic from solid; pH 6.5 PBS buffer, HPLC; read-out: Solubility (pH 6.5, μg/mL)
# Method: Representative Compounds of the Disclosure were tested in a solubility assay with pH 6.5 PBS buffer. PBS buffer was prepared by dissolving 4.86 g of potassium dihydrogen phosphate and 5.09 g of disodium hydrogen phosphate dodecahydrate in 1 L of ultrapure water to have final pH value of 6.5. In the solubility assay, 0.5 mg of test sample was dissolved in 1 mL of methanol and the stock solution was transferred into 2 mL EP tube, and evaporated at 50° C. for 3 h. To the tube was added 1 mL of PBS buffer and the mixture was stirred and shaken for 1-2 h. The solution was allowed to stand overnight and then filtered before HPLC analysis. Another 1.5 mg of the sample was dissolved in 3 mL of methanol to prepare a calibration curve with a series of concentration range of 5-500 μM. The solubility of each sample was determined by the measured peak area in HPLC.
# NCI-H929 cells = assay: Cell viability assay (NCI-H929 cells), CCK-8; type: cell-based; details: Homo sapiens, NCI-H929, 24 h, WST, 5% FBS
# Method: Cell Viability Assay (NCI-H929 Cells)
# NCI-H929 cells were obtained from American Type Culture Collection (ATCC). Cells were maintained in the recommended culture medium (RPMI 1640) with 10% FBS and 0.05 mM BME at 37° C. and an atmosphere of 5% CO2.
# The effect of Compounds on cell viability was determined using Cell Counting Kit-8 (CCK-8) assay according to the manufacturer's instructions. 95 μL of NCI-H929 cell suspension (20000 cells/well) in culture medium were seeded into 96-well plates and cultured 4 hrs. Each tested compound was serially diluted in DMSO, then 5 μL of the compound or DMSO was diluted in 95 μL medium once more. At last, 5 μL of the compound dilution was added to the corresponding well of the cell plate. After the addition of the tested compound, the cells were incubated at 37° C. in an atmosphere of 5% CO2 for 24 hrs. At the end, 10 μL of CCK-8 solution was added to each well of the plate and incubated for 1-4 hours. The plates were read at 450 nm on the microplate reader (BioTek Synergy 1MF). The readings were normalized to the vehicle cells, and the IC50 was calculated by nonlinear regression analysis using GraphPad Prism 6 software.
# [1] = target: T1, Mcl-1 protein (residues 171-323) (Homo sapiens, UniProt Q07820); assay: Inhibition of Mcl-1 by fluorescence polarization (FP) competitive binding assay; details: FAM-Bid tracer 2 nM, Mcl-1 20 nM, 30 min
# T1 construct: Tag-free Mcl-1 protein (residues 171-323) was used in the FP assay
# Method: Inhibition of Mcl-1 by Fluorescence Polarization (FP) Assay.
# The method used a fluorescein labelled peptide (FAM-Bid) which binds to the Mcl-1 protein leading to an increased anisotropy measured in milli-polarization (mP) values using a plate reader.
# A 10-points serial dilution of each compound was prepared in DMSO and 5 μL solution was transferred into flat bottomed, 96-well back plate (final DMSO concentration 5%). 120 μL of Buffer (PBS, 0.01% BGG (Sigma Cat. #SRE0011), 0.01% Triton X-100), containing the Fluorescein labelled peptide (Final concentration 2 nM) and Mcl-1 protein (final concentration 20 nM) was then added. […] 10-points dose response curves were plotted with GraphPad software using Sigmoidal Dose-Response Model and the IC50 values were determined by nonlinear regression fitting of the competition curves.
# OPM-2 cells = assay: Cell viability assay (OPM-2 cells), CCK-8; type: cell-based; details: Homo sapiens, OPM-2, 24 h, WST, 5% FBS, read-out: OPM2 (WST, 5% FBS)
# Method: Cell Viability Assay (OPM-2 Cells)
# OPM-2 cells were obtained from Deutsche Sammlung von Mikroorganismen und Zellkulturen GmbH (DSMZ). […]
# The effect of representative Compounds of the Disclosure on cell viability was determined using Cell Counting Kit-8 (CCK-8) assay (Shanghai Life iLab Bio Technology) according to the manufacturer's instructions. Each tested compound was serially diluted in culture medium, 100 μL of the compound dilution was added into 96-well plates. 100 μL of an OPM-2 cell suspension (20000 cells/well) in culture medium were seeded into the corresponding well of the plate and the cells were incubated at 37° C. in an atmosphere of 5% CO2 for 24 hours. In the next day, 20 μL of CCK-8 solution was added to each well of the plate and incubated for 4 hours.
# The plates were read at 450 nm on the microplate spectrophotometer (SpectraMax plus 384, Molecular devices). The readings were normalized to the vehicle cells, and the IC50 was calculated by nonlinear regression analysis using GraphPad Prism 6 software.
# T1 sequence (Q07820 171-323): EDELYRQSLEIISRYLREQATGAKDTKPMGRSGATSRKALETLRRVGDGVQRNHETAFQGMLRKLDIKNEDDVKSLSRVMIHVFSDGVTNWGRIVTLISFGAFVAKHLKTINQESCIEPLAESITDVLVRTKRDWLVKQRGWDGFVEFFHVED
SMILES,solubility (Kinetic solubility assay),IC50 (NCI-H929 cells),IC50 [1],IC50 (OPM-2 cells)
"Cc1nc2sc1CSc1cc(c3ccccc3c1)OCCCc1c(C(=O)O)n(C)c3c(c(Cl)ccc13)-c1c(nn3c1CCC3)CSC2 [compound 5, 1^6-chloro-1^1,6^4-dimethyl-2^5,2^6-dihydro-1^1H,2^4H-10-oxa-4,8-dithia-6(2,5)-thiazola-1(7,3)-indola-2(3,2)-pyrrolo[1,2-b]pyrazola-9(3,1)-naphthalenacyclotridecaphane-1^2-carboxylic acid]",2 µg/mL,960 nM,11.3 nM,973 nM
"Cc1oc2nc1CSc1cc(c3ccccc3c1)OCCCc1c(C(=O)O)n(C)c3c(c(Cl)ccc13)-c1c(nn3c1CCC3)CSC2 [compound 11, (Z)-1^6-chloro-1^1,6^5-dimethyl-2^5,2^6-dihydro-1^1H,2^4H-10-oxa-4,8-dithia-6(2,4)-oxazola-1(7,3)-indola-2(3,2)-pyrrolo[1,2-b]pyrazola-9(3,1)-naphthalenacyclotridecaphane-1^2-carboxylic acid]",< 1 µg/mL,3540 nM,10.6 nM,> 10000 nM
"Cn1nc2cc1CSc1cc(c3cc(Cl)ccc3c1)OCCCc1c(C(=O)O)n(C)c3c(c(Cl)ccc13)-c1c(nn3c1COCC3)CSC2 [compound 18, (Z)-1^6,9^7-dichloro-1^1,6^1-dimethyl-2^6,2^7-dihydro-1^1H,2^4H,6^1H-10-oxa-4,8-dithia-2(3,2)-pyrazolo[5,1-c][1,4]oxazina-1(7,3)-indola-6(3,5)-pyrazola-9(3,1)-naphthalenacyclotridecaphane-1^2-carboxylic acid]",< 1 µg/mL,1620 nM,19 nM,3490 nM
"Cn1nc2c(Cl)c1CSc1cc(c3ccccc3c1)OCCCc1c(C(=O)O)n(C)c3c(c(Cl)ccc13)-c1c(nn3c1CCCC3)CSC2 [compound 24, (E)-1^6,6^4-dichloro-1^1,6^1-dimethyl-2^4,2^5,2^6,2^7-tetrahydro-1^1H,6^1H-10-oxa-4,8-dithia-2(3,2)-pyrazolo[1,5-a]pyridina-1(7,3)-indola-6(3,5)-pyrazola-9(3,1)-naphthalenacyclotridecaphane-1^2-carboxylic acid]",< 1 µg/mL,1640 nM,14.3 nM,4860 nM
"Cc1c2c(nn1C)CSCc1cc(n(C)n1)CSc1cc(c3ccccc3c1)OCCCc1c(C(=O)O)n(C)c3c-2c(Cl)ccc13 [AZD5991, (Z)-1^6-chloro-1^1,2^1,2^5,6^1-tetramethyl-1H,2^1H,6^1H-10-oxa-4,8-dithia-1(7,3)-indola-2(4,3),6(3,5)-dipyrazola-9(3,1)-naphthalenacyclotridecaphane-1^2-carboxylic acid, reference compound]",< 1 µg/mL,47 nM,,
"Cn1nc2cc1CSc1cc(c3ccccc3c1)OCCCc1c(C(=O)O)n(C)c3c(c(Cl)ccc13)-c1c(nn3c1CSCC3)CSC2 [compound 21, (Z)-1^6-chloro-1^1,6^1-dimethyl-2^6,2^7-dihydro-1^1H,2^4H,6^1H-10-oxa-4,8-dithia-2(3,2)-pyrazolo[5,1-c][1,4]thiazina-1(7,3)-indola-6(3,5)-pyrazola-9(3,1)-naphthalenacyclotridecaphane-1^2-carboxylic acid]",3 µg/mL,116 nM,15.8 nM,291 nM
"Cn1nc2cc1CSCc1nn3c(c1-c1c(Cl)ccc4c(c(C(=O)O)n(C)c14)CCCOc1cc(cc4ccccc14)SC2)CCC3 [compound 7, (Z)-1^6-chloro-1^1,6^1-dimethyl-2^5,2^6-dihydro-1^1H,2^4H,6^1H-10-oxa-4,8-dithia-1(7,3)-indola-2(3,2)-pyrrolo[1,2-b]pyrazola-6(5,3)-pyrazola-9(3,1)-naphthalenacyclotridecaphane-1^2-carboxylic acid]",1 µg/mL,1130 nM,150 nM,774 nM
"Cn1nc2cc1CSc1cc(c3ccc(F)cc3c1)OCCCc1c(C(=O)O)n(C)c3c(c(Cl)ccc13)-c1c(nn3c1CCCC3)CSC2 [compound 26, (Z)-1^6-chloro-96-fluoro-1^1,6^1-dimethyl-2^4,2^5,2^6,2^7-tetrahydro-1^1H,6^1H-10-oxa-4,8-dithia-2(3,2)-pyrazolo[1,5-a]pyridina-1(7,3)-indola-6(3,5)-pyrazola-9(3,1)-naphthalenacyclotridecaphane-1^2-carboxylic acid]",1 µg/mL,44 nM,30.9 nM,133 nM

# Now from value to compound, other results behind:
solubility (Kinetic solubility assay),IC50 (NCI-H929 cells),IC50 [1],SMILES,IC50 (OPM-2 cells)
28 µg/mL,55 nM,21 nM,"Cc1c2c(nn1C)CN(C1CC1)Cc1cc(n(C)n1)CSc1cc(c3ccccc3c1)OCCCc1c(C(=O)O)n(C)c3c-2c(Cl)ccc13 [compound 49, (Z)-1^6-chloro-4-cyclopropyl-1^1,2^1,2^5,6^1-tetramethyl-1^1H,2^1H,6^1H-10-oxa-8-thia-4-aza-1(7,3)-indola-2(4,3),6(3,5)-dipyrazola-9(3,1)-naphthalenacyclotridecaphane-1^2-carboxylic acid]",167 nM
> 400 µg/mL,156 nM,15 nM,"Cn1nc2cc1CSc1cc(c3ccc(F)cc3c1)OCCCc1c(C(=O)O)n(C)c3c(c(Cl)ccc13)-c1c(nn3c1CCC3)CN(S(C)(=O)=O)C2 [compound 44, (Z)-1^6-chloro-9^6-fluoro-1^1,6^1-dimethyl-4-(methylsulfonyl)-2^5,2^6-dihydro-1^1H,2^4H,6^1H-10-oxa-8-thia-4-aza-1(7,3)-indola-2(3,2)-pyrrolo[1,2-b]pyrazola-6(3,5)-pyrazola-9(3,1)-naphthalenacyclotridecaphane-1^2-carboxylic acid]",506 nM
16 µg/mL,71 nM,19 nM,"Cc1c2c(nn1C)CN(S(C)(=O)=O)Cc1cc(n(C)n1)CSc1cc(c3ccccc3c1)OCCCc1c(C(=O)O)n(C)c3c-2c(Cl)ccc13 [compound 36, (Z)-1^6-chloro-1^1,2^1,2^5,6^1-tetramethyl-4-(methylsulfonyl)-1^1H,2^1H,6^1H-10-oxa-8-thia-4-aza-1(7,3)-indola-2(4,3),6(3,5)-dipyrazola-9(3,1)-naphthalenacyclotridecaphane-1^2-carboxylic acid]",317 nM
52 µg/mL,51 nM,24.9 nM,"Cn1nc2cc1CSc1cc(c3ccc(F)cc3c1)OCCCc1c(C(=O)O)n(C)c3c(c(Cl)ccc13)-c1c(nn3c1CCC3)CSC2 [compound 27, (Z)-1^6-chloro-9^6-fluoro-1^1,6^1-dimethyl-2^5,2^6-dihydro-1^1H,2^4H,6^1H-10-oxa-4,8-dithia-1(7,3)-indola-2(3,2)-pyrrolo[1,2-b]pyrazola-6(3,5)-pyrazola-9(3,1)-naphthalenacyclotridecaphane-1^2-carboxylic acid]",153 nM
< 1 µg/mL,196 nM,14.2 nM,"Cc1cc2ccc1CSc1cc(c3ccc(F)cc3c1)OCCCc1c(C(=O)O)n(C)c3c(c(Cl)ccc13)-c1c(nn3c1CCC3)CSC2 [compound 30, 1^6-chloro-9^6-fluoro-1^1,6^3-dimethyl-2^5,2^6-dihydro-1^1H,2^4H-10-oxa-4,8-dithia-1(7,3)-indola-2(3,2)-pyrrolo[1,2-b]pyrazola-9(3,1)-naphthalena-6(1,4)-benzenacyclotridecaphane-1^2-carboxylic acid]",255 nM
